A word on the IC50: it is the midpoint of a concentration-inhibition curve.

The target in the experiment is Dihydroorotate dehydrogenase (quinone), mitochondrial (Rattus norvegicus, UniProt Q63707). The experiment is described as follows: Inhibition of dihydroorotate dehydrogenase in Wistar rat liver mitochondrial/microsomal membranes measured for 5 mins by 2,6-dichlorophenolindophenol reduction-based spectrophotometry. The format is cell membranes, Membrane.
Chain of Dihydroorotate dehydrogenase (quinone), mitochondrial (Q63707 whole entry): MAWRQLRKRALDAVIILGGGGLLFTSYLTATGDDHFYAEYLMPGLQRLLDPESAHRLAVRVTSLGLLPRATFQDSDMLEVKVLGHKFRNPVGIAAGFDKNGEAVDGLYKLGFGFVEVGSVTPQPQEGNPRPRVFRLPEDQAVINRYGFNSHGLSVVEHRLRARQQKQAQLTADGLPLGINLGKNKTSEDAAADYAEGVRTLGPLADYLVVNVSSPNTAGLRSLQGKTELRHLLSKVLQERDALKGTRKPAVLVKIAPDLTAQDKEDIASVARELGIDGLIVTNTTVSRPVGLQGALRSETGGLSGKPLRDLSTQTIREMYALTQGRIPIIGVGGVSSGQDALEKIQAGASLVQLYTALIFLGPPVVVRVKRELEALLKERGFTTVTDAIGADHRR

In turn, `O=C(Nc1ccc(C(F)(F)F)cc1)c1nonc1O` registered a half-maximal inhibitory concentration (IC50) of 4300 nM. Next, `O=C(Nc1ccc(-c2ccccc2)cc1)c1nonc1O`: 11000 nM; `O=C(Nc1ccccc1-c1ccccc1)c1no[nH]c1=O`: 45000 nM. With `O=C(Nc1ccc(-c2ccc(C(F)(F)F)cc2)cc1)c1nonc1O`, the half-inhibitory concentration (IC50) was 49000 nM. `O=C(Nc1ccc(-c2cccc(C(F)(F)F)c2)cc1)c1nonc1O`: inhibition was half-maximal at 25000 nM (IC50).

Turning to `O=C(Nc1c(F)cc(-c2ccccc2)cc1F)c1no[nH]c1=O`, it took 880 nM to reach half-maximal inhibition (IC50). This IC50 lies about 28-fold lower than the previous one. Next, `O=C(Nc1c(F)c(F)c(-c2ccccc2)c(F)c1F)c1no[nH]c1=O`: 66 nM; `O=C(Nc1c(F)cc(-c2cccc(C(F)(F)F)c2)cc1F)c1nonc1O`: 870 nM; `O=C(Nc1c(F)cc(-c2ccc(C(F)(F)F)cc2)cc1F)c1nonc1O`: 2300 nM. Next, `O=C(Nc1c(F)c(F)c(-c2ccc(C(F)(F)F)cc2)c(F)c1F)c1no[nH]c1=O`: 490 nM; `O=C(Nc1c(F)c(F)c(-c2cccc(C(F)(F)F)c2)c(F)c1F)c1nonc1O`: 120 nM.

For `O=C(Nc1c(F)c(F)c(-c2cccc(OC(F)(F)F)c2)c(F)c1F)c1no[nH]c1=O`, it took 50 nM to reach half-maximal inhibition (IC50). Against the preceding molecule, the IC50 is about 2.4-fold lower.

(Values after ChEMBL document CHEMBL1944517, “New inhibitors of dihydroorotate dehydrogenase (DHODH) based on the 4-hydroxy-1,2,5-oxadiazol-3-yl (hydroxyfurazanyl) scaffold” (Eur J Med Chem, 2012).)
